Patent US5336684A, “Oxidation products of cephalomannine” (Hauser Chemical Research, Inc., priority 1993, dated 1994)
≈ marks a conversion by molar mass, not a printed value. Where “and” joins values, the source holds several entries; their conditions need not be identical. Equal values may be shown once. Read-outs that look alike come from different tables or passages of the source.

Legend:
Tubulin [1] = assay: Tubulin Assembly; assay type: biochemical, bovine; details: for Tubulin Assembly ED50/ED50 Taxol: ratio to taxol, <1 indicates greater activity than taxol; for Tubulin Assembly ED50 (concentration which reduces the supernatant protein concentration by 50%): tubulin 1 mg/ml, 37° C., 15 minutes, PEM buffer pH 6.9
Description: (§1) Tubulin binding and cytotoxicity data for cephalomannine and the synthetic derivatives described herein are included for comparison. The tubulin testing was done exactly as described by Himes (Georg, G. I., et al., "Synthesis of Biologically Active Taxol Analogues with Modified Phenylisoserine Side Chains", J. Med. Chem. Vol 35:4230, (1992)), incorporated herein by reference. Taxol has been included in Table 1 for reference. […] A number less than 1 in these columns indicates greater activity than taxol. A number greater than 1 in these columns indicates lower activity than taxol. The error in the tests appears to be ±10-20%. […] These tests have been used and relied upon by experimentalists in this field to determine the potential efficacy of a taxol derivative for the treatment of cancer.
Tubulin free of microtubule-associated proteins was purified from bovine brain as previously described (Algaier, J., Himes, R. H., "The Effect of Dimethyl Sulfoxide on the Kinetics of Tubulin Assembly" Biochim. Biophys. Acta, Vol 954, pp 235-243, 1988). The assembly reaction was done at 37° C. in PEM buffer (0.1M Pipes, pH 6.9, 1 mM EGTA, and 1 mM MgSO4) at a protein concentration of 1 mg/ml (10 μM) in the presence of taxol or taxol analogues and 0.5 mM GTP. The reaction was monitored by the increase in the apparent absorbance at 350 nm.
^b Tubulin at 1 mg/ml was incubated with various concentrations of th
compounds at 37° C. for 15 minutes in 0.5 ml of PEM buffer (0.1 M
Pipes, 1 mM EGTA, 1 mM MgSO4, pH 6.9). Samples were centrifuged and
the protein concentration on the supernatant was determined.
^d The concentration in ng/ml which reduces the supernatant protein

B16 Melanoma cells = assay: cells; assay type: cell-based; details: for IC50: Mus musculus; for B16 Proliferation ED50/ED50 Taxol: ratio to taxol, <1 indicates greater activity than taxol
Description: as §1
Cells were seeded in 24-well plates at 7.5×10^4 cells/well and grown in Dulbecco's modified minimal essential medium (MEM) containing 10% bovine calf serum at 37° C. for 24 hours in a 97% humidified atmosphere of 5.5% CO2. The medium was then replaced with fresh medium containing taxol or its derivatives and dissolved in DMSO in concentrations ranging from 7.5×10^-9 M to 1×10^-7 M for taxol and other derivatives. The final concentration of DMSO in the cell medium was 0.5% or less. […] After 40 hours, the cells were released by trypsinization and counted in a Coulter counter.
^c B16 Melanoma cells were incubated with various concentrations of
the compounds for about 40h at 37° C.
^e The concentration in ng/ml which reduces the number of cells by 50

tubulin [2] = details: Schiff et al. 1979; cited from earlier work
cell = details: when delivered to the cell; cited from earlier work
tubulin [3] = details: compared with taxol, cited from earlier work
[4] = test system: mouse macrophage-like J774.2 cells; details: compared with taxol; cited from earlier work
[5] = test system: P388 murine leukemia cells; details: compared with taxol; cited from earlier work
[6] = test system: taxol resistant tumor cells; details: compared with taxol; cited from earlier work
[7] = B16, 40 h, B16 melanoma cells, about 40h at 37° C., read-out: B16 Proliferation ED50 (concentration which reduces the number of cells by 50% compared to a control)

CC(=O)O[C@H]1C(=O)[C@@]2(C)[C@H]([C@H](OC(=O)c3ccccc3)[C@]3(O)C[C@H](OC(=O)[C@H](O)[C@@H](NC(=O)c4ccccc4)c4ccccc4)C(C)=C1C3(C)C)[C@]1(OC(C)=O)CO[C@@H]1C[C@@H]2O [Compound 1, taxol, reference compound]
Tubulin Assembly ED50/ED50 Taxol (Tubulin [1]): 1.26 | Tubulin Assembly ED50/ED50 Taxol (Tubulin [1]; listed as taxol): approximately 1 | ED50 for taxol in the assembly assay (Tubulin [1]; taxol reference value for the ratios (footnotes g, h, i), 15 min): 0.854 µg/mL and 0.97 µg/mL and 0.85 µg/mL | IC50 (B16 Melanoma cells; [7]): 0.0214 µg/mL (≈ 0.0251 µM) | IC50 (B16 Melanoma cells; B16, 40 h, taxol reference value for the ratios (footnotes g, h, i), read-out: ED50 for taxol in the B16 assay): 0.0225 µg/mL | B16 Proliferation ED50/ED50 Taxol (B16 Melanoma cells): 0.95 | ED50 for taxol in the B16 assay (B16 Melanoma cells; taxol reference value for the ratios (footnotes g, h, i), 2400 min): 0.0227 µg/mL | tubulin binding (tubulin [2]): significant tubulin binding | cytotoxic activity (cell): cytotoxic activity

CC(=O)O[C@@]12CO[C@@H]1C[C@H](O)[C@@]1(C)C(=O)[C@H](O)C3=C(C)[C@@H](OC(=O)[C@H](O)[C@@H](NC(=O)OC(C)(C)C)c4ccccc4)C[C@@](O)([C@@H](OC(=O)c4ccccc4)[C@H]21)C3(C)C [Compound 2, taxotere]
activity as a promoter of tubulin polymerization vs taxol (tubulin [3]): slightly more active | in vitro tubulin binding activity of taxotere (tubulin [3]; in vitro): enhanced in vitro tubulin binding activity | potency as an inhibitor of replication vs taxol, J774.2 cells [4]: 1.5 fold | potency as an inhibitor of replication vs taxol, P388 cells [5]: 1.5 fold | potency in taxol resistant tumor cells vs taxol [6]: at least fivefold more potent

C/C=C(\C)C(=O)N[C@@H](c1ccccc1)[C@@H](O)C(=O)O[C@H]1C[C@@]2(O)[C@@H](OC(=O)c3ccccc3)[C@@H]3[C@]4(OC(C)=O)CO[C@@H]4C[C@H](O)[C@@]3(C)C(=O)[C@H](OC(C)=O)C(=C1C)C2(C)C [Compound 3, cephalomannine]
Tubulin Assembly ED50/ED50 Taxol (Tubulin [1]): 0.82 | IC50 (B16 Melanoma cells; B16, 40 h, read-out: B16 Proliferation ED50 (concentration which reduces the number of cells by 50% compared to a control)): 0.0335 µg/mL (≈ 0.0403 µM) | B16 Proliferation ED50/ED50 Taxol (B16 Melanoma cells): 1.49

CC(=O)O[C@H]1C(=O)[C@@]2(C)[C@H]([C@H](OC(=O)c3ccccc3)[C@]3(O)C[C@H](OC(=O)[C@H](O)[C@@H](NC(=O)C(C)=O)c4ccccc4)C(C)=C1C3(C)C)[C@]1(OC(C)=O)CO[C@@H]1C[C@@H]2O [Compound 4ab]
activity in the in vitro tubulin assembly test relative to taxol (Tubulin [1]; compared to taxol): comparable to or superior to taxol | tubulin binding activity (Tubulin [1]; in vitro testing): good | Tubulin Assembly ED50/ED50 Taxol (Tubulin [1]): 1.46 | Tubulin Assembly ED50 (concentration which reduces the supernatant protein concentration by 50%) (Tubulin [1]): 1.24 µg/mL | IC50 (B16 Melanoma cells; [7]): 0.0171 µg/mL (≈ 0.0209 µM) | activity in the B16 Proliferation test relative to taxol (B16 Melanoma cells; compared to taxol): comparable to or superior to taxol | cytotoxicity activity (B16 Melanoma cells; in vitro testing): good | B16 Proliferation ED50/ED50 Taxol (B16 Melanoma cells): 0.75

CC(=O)O[C@H]1C(=O)[C@@]2(C)[C@H]([C@H](OC(=O)c3ccccc3)[C@]3(O)C[C@H](OC(=O)[C@H](OC(C)=O)[C@@H](NC(=O)C(C)=O)c4ccccc4)C(C)=C1C3(C)C)[C@]1(OC(C)=O)CO[C@@H]1C[C@@H]2O [Compound 5, 240 -Acetyl-α-ketoamide]
Tubulin Assembly ED50/ED50 Taxol (Tubulin [1]): > 10 | Tubulin Assembly ED50 (concentration which reduces the supernatant protein concentration by 50%) (Tubulin [1]): > 8.54 µg/mL | IC50 (B16 Melanoma cells; B16 melanoma cells, about 40h at 37° C., read-out: B16 Proliferation ED50 (concentration which reduces the number of cells by 50% compared to a control)): > 0.854 µg/mL | B16 Proliferation ED50/ED50 Taxol (B16 Melanoma cells): > 38

CC(=O)O[C@H]1C(=O)[C@]2(C)[C@@H](OC(C)=O)C[C@H]3OC[C@@]3(OC(C)=O)[C@H]2[C@H](OC(=O)c2ccccc2)[C@]2(O)C[C@H](OC(=O)[C@H](OC(C)=O)[C@@H](NC(=O)C(C)=O)c3ccccc3)C(C)=C1C2(C)C [Compound 6, 2',7-bis(acetyl)-α-ketoamide]
Tubulin Assembly ED50/ED50 Taxol (Tubulin [1]): > 10 | Tubulin Assembly ED50 (concentration which reduces the supernatant protein concentration by 50%) (Tubulin [1]): > 8.54 µg/mL | IC50 (B16 Melanoma cells; [7]): > 0.854 µg/mL | B16 Proliferation ED50/ED50 Taxol (B16 Melanoma cells): > 38

CC[Si](CC)(CC)O[C@H]1C[C@H]2OC[C@@]2(OC(C)=O)[C@H]2[C@H](OC(=O)c3ccccc3)[C@]3(O)C[C@H](OC(=O)[C@H](O[Si](CC)(CC)CC)[C@@H](NC(=O)C(C)=O)c4ccccc4)C(C)=C([C@@H](OC(C)=O)C(=O)[C@]12C)C3(C)C [Compound 7, 2',7-Bis(triethylsilyl)-α-ketoamide]
Tubulin Assembly ED50/ED50 Taxol (Tubulin [1]): > 10 | Tubulin Assembly ED50 (concentration which reduces the supernatant protein concentration by 50%) (Tubulin [1]): > 8.54 µg/mL | IC50 (B16 Melanoma cells; [7]): > 8.54 µg/mL | B16 Proliferation ED50/ED50 Taxol (B16 Melanoma cells): > 380

CC(=O)O[C@H]1C(=O)[C@@]2(C)[C@H]([C@H](OC(=O)c3ccccc3)[C@]3(O)C[C@H](OC(=O)[C@H](O)[C@@H](NC(=O)C(C)(O)C(C)O)c4ccccc4)C(C)=C1C3(C)C)[C@]1(OC(C)=O)CO[C@@H]1C[C@@H]2O (some centres unmarked) [Compound 8, Cephalomannine diol]
Tubulin Assembly ED50/ED50 Taxol (Tubulin [1]): 3.4 | Tubulin Assembly ED50 (concentration which reduces the supernatant protein concentration by 50%) (Tubulin [1]): 3.3 µg/mL | IC50 (B16 Melanoma cells; [7]): > 0.854 µg/mL | B16 Proliferation ED50/ED50 Taxol (B16 Melanoma cells): > 38
